Experimental data as given in PMC4051630, “A Comparison of Protein Kinases Inhibitor Screening Methods Using Both Enzymatic Activity and Binding Affinity Determination” (PLoS ONE, 2014).

What was measured:
Experiment in all cases: Differential Scanning Fluorimetry (DSF) Tm shift
Type in all cases: binding
DMPK Catalytic Domain = molecular target: T1, DMPK Catalytic Domain (Homo sapiens, UniProt Q09013); details: 2 µM protein, 10 µM inhibitor, average of 3 experiments, each in duplicate
T1 construct: For all of them, we expressed and purified the catalytic domain separately; His-tag; made in house; host or cells: Escherichia coli
T1 sequence (Q09013 71-339 limits assumed): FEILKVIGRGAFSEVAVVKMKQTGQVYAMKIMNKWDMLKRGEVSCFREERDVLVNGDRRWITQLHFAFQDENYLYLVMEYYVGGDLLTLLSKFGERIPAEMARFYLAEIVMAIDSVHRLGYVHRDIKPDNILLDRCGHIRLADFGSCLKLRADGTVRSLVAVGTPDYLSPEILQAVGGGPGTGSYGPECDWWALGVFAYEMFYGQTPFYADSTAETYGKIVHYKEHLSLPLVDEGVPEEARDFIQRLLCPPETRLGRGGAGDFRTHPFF

FES Catalytic Domain+SH2 = molecular target: T2, FES Catalytic Domain+SH2 (Homo sapiens, UniProt P07332); details: 2 µM protein, 10 µM inhibitor, average of 3 experiments, each in duplicate
T2 construct: for 8, we also made a longer version containing one or more additional domains; His-tag; made in house; host or cells: Escherichia coli

SRC Catalytic Domain = SRC Catalytic Domain (Homo sapiens, UniProt P12931); parameters: For all of them, we expressed and purified the catalytic domain separately; His-tag; made in house; host or cells: Escherichia coli; details: 2 µM protein, 10 µM inhibitor, average of 3 experiments, each in duplicate
CDK2 + Cyclin E = molecular target: T3, CDK2 + Cyclin E (Homo sapiens, UniProt P24941); details: CDK2 + Cyclin E; 2 µM protein, 10 µM inhibitor; average of 3 experiments, each in duplicate
T3 construct: CDK2 (P24941); 1–299; His-tag; made in house; host or cells: Escherichia coli

CHK2 Catalytic Domain = molecular target: T4, CHK2 Catalytic Domain (Homo sapiens, UniProt O96017); details: 2 µM protein, 10 µM inhibitor, average of 3 experiments, each in duplicate
T4 construct: For all of them, we expressed and purified the catalytic domain separately; His-tag; made in house; host or cells: Escherichia coli

PAK4 Catalytic Domain = molecular target: T5, PAK4 Catalytic Domain (Homo sapiens, UniProt O96013); details: 2 µM protein, 10 µM inhibitor, average of 3 experiments, each in duplicate
T5 construct: For all of them, we expressed and purified the catalytic domain separately; His-tag; made in house; host or cells: Escherichia coli

FAK2 Catalytic Domain = molecular target: T6, FAK2 Catalytic Domain (Homo sapiens, UniProt Q14289); details: 2 µM protein, 10 µM inhibitor, average of 3 experiments, each in duplicate
T6 construct: For all of them, we expressed and purified the catalytic domain separately; His-tag; made in house; host or cells: Escherichia coli

[1] = molecular target: SRC Catalytic Domain+SH2+SH3 (Homo sapiens, UniProt P12931); details: 2 µM protein, 10 µM inhibitor, average of 3 experiments, each in duplicate
[2] = molecular target: T7, PAK4 Catalytic Domain+PBD (Homo sapiens, UniProt O96013); details: 2 µM protein, 10 µM inhibitor, average of 3 experiments, each in duplicate
T7 construct: for 8, we also made a longer version containing one or more additional domains; His-tag; made in house; host or cells: Escherichia coli

[3] = molecular target: T8, STK3 Catalytic domain+SARAH (Homo sapiens, UniProt Q13188); details: 2 µM protein, 10 µM inhibitor, average of 3 experiments, each in duplicate
T8 construct: for 8, we also made a longer version containing one or more additional domains; His-tag; made in house; host or cells: Escherichia coli
T8 sequence (Q13188 1-491): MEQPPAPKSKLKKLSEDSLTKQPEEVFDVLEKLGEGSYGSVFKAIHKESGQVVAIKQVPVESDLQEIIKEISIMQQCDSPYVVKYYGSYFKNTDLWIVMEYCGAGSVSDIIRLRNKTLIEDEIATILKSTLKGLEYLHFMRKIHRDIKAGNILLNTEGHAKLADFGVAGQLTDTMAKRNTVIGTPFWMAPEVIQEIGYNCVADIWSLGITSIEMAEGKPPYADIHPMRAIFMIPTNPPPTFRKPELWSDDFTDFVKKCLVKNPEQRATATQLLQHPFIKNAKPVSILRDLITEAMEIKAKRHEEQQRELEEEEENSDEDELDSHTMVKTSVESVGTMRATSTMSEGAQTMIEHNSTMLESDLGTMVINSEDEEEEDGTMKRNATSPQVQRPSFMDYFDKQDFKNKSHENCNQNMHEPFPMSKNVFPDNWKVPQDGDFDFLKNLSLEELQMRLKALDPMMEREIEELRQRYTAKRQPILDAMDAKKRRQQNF

CDK2 + Cyclin A = molecular target: T9, CDK2 + Cyclin A (Homo sapiens, UniProt P24941); details: CDK2 + Cyclin A; 2 µM protein, 10 µM inhibitor; average of 3 experiments, each in duplicate
T9 construct: CDK2 (P24941); 1–299; His-tag; made in house; host or cells: Escherichia coli

STK3 Catalytic Domain = molecular target: T10, STK3 Catalytic Domain (Homo sapiens, UniProt Q13188); details: 2 µM protein, 10 µM inhibitor, average of 3 experiments, each in duplicate
T10 construct: For all of them, we expressed and purified the catalytic domain separately; His-tag; made in house; host or cells: Escherichia coli
T10 sequence (Q13188 27-278 limits assumed): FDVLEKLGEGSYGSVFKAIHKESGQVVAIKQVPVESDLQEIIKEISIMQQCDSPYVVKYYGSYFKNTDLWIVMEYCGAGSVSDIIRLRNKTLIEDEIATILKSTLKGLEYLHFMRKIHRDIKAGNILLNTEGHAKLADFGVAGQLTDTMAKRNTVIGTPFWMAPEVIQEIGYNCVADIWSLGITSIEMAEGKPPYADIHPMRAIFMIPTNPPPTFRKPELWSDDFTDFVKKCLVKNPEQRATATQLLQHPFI

FES Catalytic Domain = molecular target: T11, FES Catalytic Domain (Homo sapiens, UniProt P07332); details: 2 µM protein, 10 µM inhibitor, average of 3 experiments, each in duplicate
T11 construct: For all of them, we expressed and purified the catalytic domain separately; His-tag; made in house; host or cells: Escherichia coli

AKT3 Catalytic Domain = molecular target: T12, AKT3 Catalytic Domain (Homo sapiens, UniProt Q9Y243); details: 2 µM protein, 10 µM inhibitor, average of 3 experiments, each in duplicate
T12 construct: AKT3 (Q9Y243); CD; His-tag; made in house; host or cells: Escherichia coli

PAK7 Catalytic Domain = molecular target: T13, PAK7 Catalytic Domain (Homo sapiens, UniProt Q9P286); details: 2 µM protein, 10 µM inhibitor, average of 3 experiments, each in duplicate
T13 construct: For all of them, we expressed and purified the catalytic domain separately; His-tag; made in house; host or cells: Escherichia coli
T13 sequence (Q9P286 449-700 limits assumed): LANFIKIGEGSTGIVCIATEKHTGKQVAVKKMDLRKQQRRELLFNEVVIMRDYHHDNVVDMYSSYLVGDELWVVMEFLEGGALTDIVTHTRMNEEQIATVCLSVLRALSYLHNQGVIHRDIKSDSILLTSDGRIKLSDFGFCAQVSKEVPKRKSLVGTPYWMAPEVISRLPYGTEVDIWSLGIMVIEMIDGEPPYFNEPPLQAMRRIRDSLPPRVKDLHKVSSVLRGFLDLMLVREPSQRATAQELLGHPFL

T5 sequence (O96013 321-572 limits assumed): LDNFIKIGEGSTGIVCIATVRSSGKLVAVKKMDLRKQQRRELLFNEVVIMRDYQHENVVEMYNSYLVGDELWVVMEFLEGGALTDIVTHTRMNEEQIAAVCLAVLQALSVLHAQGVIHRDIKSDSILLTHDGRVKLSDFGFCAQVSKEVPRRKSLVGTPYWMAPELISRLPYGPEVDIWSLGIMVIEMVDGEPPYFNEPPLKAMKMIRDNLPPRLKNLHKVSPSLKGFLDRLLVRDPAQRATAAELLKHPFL
T6 sequence (Q14289 425-683 limits assumed): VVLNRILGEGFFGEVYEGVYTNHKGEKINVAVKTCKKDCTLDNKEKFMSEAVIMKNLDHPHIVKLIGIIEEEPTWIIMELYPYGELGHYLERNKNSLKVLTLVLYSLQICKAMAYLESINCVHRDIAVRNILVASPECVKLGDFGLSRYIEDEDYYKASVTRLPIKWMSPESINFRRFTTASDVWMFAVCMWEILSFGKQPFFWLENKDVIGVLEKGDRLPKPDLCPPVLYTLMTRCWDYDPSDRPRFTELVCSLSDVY
T11 sequence (P07332 561-822 limits assumed): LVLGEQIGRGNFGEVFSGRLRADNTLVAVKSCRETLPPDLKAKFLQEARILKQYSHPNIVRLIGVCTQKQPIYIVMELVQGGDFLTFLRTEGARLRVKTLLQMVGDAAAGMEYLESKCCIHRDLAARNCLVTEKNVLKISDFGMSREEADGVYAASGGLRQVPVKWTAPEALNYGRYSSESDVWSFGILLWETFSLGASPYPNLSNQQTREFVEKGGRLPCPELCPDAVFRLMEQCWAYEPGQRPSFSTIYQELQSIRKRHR
T2 sequence (P07332 448-822 limits assumed): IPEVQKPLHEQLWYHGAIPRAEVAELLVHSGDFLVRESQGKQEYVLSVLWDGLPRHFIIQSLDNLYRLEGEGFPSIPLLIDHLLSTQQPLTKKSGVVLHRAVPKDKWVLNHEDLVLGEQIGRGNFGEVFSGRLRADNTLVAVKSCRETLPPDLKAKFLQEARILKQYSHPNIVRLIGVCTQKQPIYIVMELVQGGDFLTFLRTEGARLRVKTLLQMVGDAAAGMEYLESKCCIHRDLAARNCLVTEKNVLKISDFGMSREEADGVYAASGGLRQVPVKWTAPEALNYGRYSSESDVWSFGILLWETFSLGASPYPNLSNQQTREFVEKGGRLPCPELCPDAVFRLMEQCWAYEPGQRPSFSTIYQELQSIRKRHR
T7 sequence (O96013 whole entry, the tested form may be a part): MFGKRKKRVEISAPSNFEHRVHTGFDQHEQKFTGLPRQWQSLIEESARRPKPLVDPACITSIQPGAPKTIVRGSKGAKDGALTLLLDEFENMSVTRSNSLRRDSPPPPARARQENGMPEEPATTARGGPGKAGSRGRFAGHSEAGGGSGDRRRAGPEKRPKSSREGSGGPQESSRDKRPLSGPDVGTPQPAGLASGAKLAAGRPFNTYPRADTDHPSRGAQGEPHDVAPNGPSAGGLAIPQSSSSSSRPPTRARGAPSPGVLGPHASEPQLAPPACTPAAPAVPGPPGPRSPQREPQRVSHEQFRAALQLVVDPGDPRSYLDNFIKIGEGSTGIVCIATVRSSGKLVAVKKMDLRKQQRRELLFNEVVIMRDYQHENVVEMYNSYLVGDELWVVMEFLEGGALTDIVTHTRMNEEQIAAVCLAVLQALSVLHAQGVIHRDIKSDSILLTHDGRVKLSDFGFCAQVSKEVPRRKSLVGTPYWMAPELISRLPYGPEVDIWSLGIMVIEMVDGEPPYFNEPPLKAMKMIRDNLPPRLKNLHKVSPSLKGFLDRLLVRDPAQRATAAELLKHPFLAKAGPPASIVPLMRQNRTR
T12 sequence (Q9Y243 122-479): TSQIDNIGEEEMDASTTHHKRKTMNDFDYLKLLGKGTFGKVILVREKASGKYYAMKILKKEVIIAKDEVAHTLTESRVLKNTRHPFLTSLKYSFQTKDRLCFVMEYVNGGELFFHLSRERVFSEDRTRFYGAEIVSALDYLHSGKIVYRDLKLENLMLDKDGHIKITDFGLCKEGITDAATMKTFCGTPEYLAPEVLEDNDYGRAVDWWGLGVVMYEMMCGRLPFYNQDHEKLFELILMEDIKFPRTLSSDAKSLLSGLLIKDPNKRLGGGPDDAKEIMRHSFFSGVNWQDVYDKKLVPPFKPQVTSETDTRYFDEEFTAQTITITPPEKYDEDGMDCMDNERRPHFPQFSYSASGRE
T4 sequence (O96017 220-486 limits assumed): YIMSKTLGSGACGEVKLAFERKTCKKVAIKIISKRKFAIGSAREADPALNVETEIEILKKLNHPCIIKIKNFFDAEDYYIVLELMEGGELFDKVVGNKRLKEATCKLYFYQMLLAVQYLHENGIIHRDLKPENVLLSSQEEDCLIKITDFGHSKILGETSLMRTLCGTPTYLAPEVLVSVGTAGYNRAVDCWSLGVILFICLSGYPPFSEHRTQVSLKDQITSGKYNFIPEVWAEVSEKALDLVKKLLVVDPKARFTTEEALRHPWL

Molecule | Melting temperature (Tm) shift (DMPK Catalytic Domain) | Melting temperature (Tm) shift (FES Catalytic Domain+SH2) | Melting temperature (Tm) shift (SRC Catalytic Domain) | Melting temperature (Tm) shift (CDK2 + Cyclin E) | Melting temperature (Tm) shift (CHK2 Catalytic Domain) | Melting temperature (Tm) shift (PAK4 Catalytic Domain) | Melting temperature (Tm) shift (FAK2 Catalytic Domain) | Melting temperature (Tm) shift [1] | Melting temperature (Tm) shift [2] | Melting temperature (Tm) shift [3] | Melting temperature (Tm) shift (CDK2 + Cyclin A) | Melting temperature (Tm) shift (STK3 Catalytic Domain) | Melting temperature (Tm) shift (FES Catalytic Domain) | Melting temperature (Tm) shift (AKT3 Catalytic Domain) | Melting temperature (Tm) shift (PAK7 Catalytic Domain)
c1cc(-c2cnn3cc(-c4ccc(OCCN5CCCCC5)cc4)cnc23)ccn1 [AMPK Inhibitor, Compound C] | 1.5 degrees Celcius | 0.4 degrees Celcius | 0.5 degrees Celcius | 0.5 degrees Celcius | 1.1 degrees Celcius | 0.7 degrees Celcius | 0.1 degrees Celcius | 0.6 degrees Celcius | 0.8 degrees Celcius | 0.4 degrees Celcius | 1.0 degrees Celcius | 0.3 degrees Celcius | 1.2 degrees Celcius | 0.3 degrees Celcius | 0.5 degrees Celcius
CCCCc1c(-c2ccc(O)cc2)[nH]c2nccnc12 [Aloisine A, RP107, Aloisine A] | 1.4 degrees Celcius | 0.5 degrees Celcius | 1.5 degrees Celcius | 1.4 degrees Celcius | 2.7 degrees Celcius | 1.3 degrees Celcius | 1.2 degrees Celcius | 1.1 degrees Celcius | 1.3 degrees Celcius | 1.4 degrees Celcius | 2.5 degrees Celcius | 1.6 degrees Celcius | 0.9 degrees Celcius | 0.1 degrees Celcius | 1.2 degrees Celcius
N#CCCc1ccc2c(c1)-c1[nH]c3ccc([N+](=O)[O-])cc3c1CC(=O)N2 [Alsterpaullone, 2-Cyanoethyl] | 3.4 degrees Celcius | 0.3 degrees Celcius | 0.2 degrees Celcius | 0.5 degrees Celcius | 1.9 degrees Celcius | 0.9 degrees Celcius | 0.6 degrees Celcius | 0.3 degrees Celcius | 0.3 degrees Celcius | 1.5 degrees Celcius | 0.5 degrees Celcius | 1.7 degrees Celcius | 1.3 degrees Celcius | 0.1 degrees Celcius | 1.3 degrees Celcius
NC(=O)Nc1sc(-c2ccc(F)cc2)cc1C(N)=O [IKK-2 Inhibitor IV] | 1.8 degrees Celcius | 0.5 degrees Celcius | 1.2 degrees Celcius | 0.4 degrees Celcius | 3.6 degrees Celcius | 1.5 degrees Celcius | 1.2 degrees Celcius | 1.0 degrees Celcius | 2.4 degrees Celcius | 1.6 degrees Celcius | 0.7 degrees Celcius | 2.8 degrees Celcius | 1.5 degrees Celcius | 0.1 degrees Celcius | 1.3 degrees Celcius

The next lines start with the values.

Melting temperature (Tm) shift (DMPK Catalytic Domain) | Melting temperature (Tm) shift (FES Catalytic Domain+SH2) | Melting temperature (Tm) shift (SRC Catalytic Domain) | Melting temperature (Tm) shift (CDK2 + Cyclin E) | Melting temperature (Tm) shift (CHK2 Catalytic Domain) | Melting temperature (Tm) shift (PAK4 Catalytic Domain) | Melting temperature (Tm) shift (FAK2 Catalytic Domain) | Melting temperature (Tm) shift [1] | Melting temperature (Tm) shift [2] | Melting temperature (Tm) shift [3] | Melting temperature (Tm) shift (CDK2 + Cyclin A) | Melting temperature (Tm) shift (STK3 Catalytic Domain) | Melting temperature (Tm) shift (FES Catalytic Domain) | Melting temperature (Tm) shift (AKT3 Catalytic Domain) | Melting temperature (Tm) shift (PAK7 Catalytic Domain) | Molecule
1.4 degrees Celcius | 0.6 degrees Celcius | 0.2 degrees Celcius | 1.9 degrees Celcius | 8.7 degrees Celcius | 0.7 degrees Celcius | 2.6 degrees Celcius | 0.3 degrees Celcius | 0.6 degrees Celcius | 3.4 degrees Celcius | 2.9 degrees Celcius | 2.3 degrees Celcius | 3.0 degrees Celcius | 0.0 degrees Celcius | 0.3 degrees Celcius | Chk2 Inhibitor
2.2 degrees Celcius | 0.2 degrees Celcius | 0.1 degrees Celcius | 0.8 degrees Celcius | 5.9 degrees Celcius | 0.7 degrees Celcius | 0.3 degrees Celcius | 0.1 degrees Celcius | 1.5 degrees Celcius | 3.7 degrees Celcius | 0.2 degrees Celcius | 1.1 degrees Celcius | 0.2 degrees Celcius | 0.1 degrees Celcius | 1.0 degrees Celcius | Wee1/Chk1 Inhibitor
1.2 degrees Celcius | 1.4 degrees Celcius | 0.6 degrees Celcius | 0.5 degrees Celcius | 1.9 degrees Celcius | 1.7 degrees Celcius | 1.8 degrees Celcius | 0.5 degrees Celcius | 0.5 degrees Celcius | 1.2 degrees Celcius | 0.7 degrees Celcius | 0.7 degrees Celcius | 3.3 degrees Celcius | 0.2 degrees Celcius | 1.8 degrees Celcius | O=C(c1ccc(Nc2nccc(-c3cc4ccccc4s3)n2)cc1)N1CCC(N2CCCC2)CC1 [IKK Inhibitor VII]
0.1 degrees Celcius | 0.4 degrees Celcius | 0.1 degrees Celcius | 0.2 degrees Celcius | 0.5 degrees Celcius | 0.2 degrees Celcius | 0.2 degrees Celcius | 0.2 degrees Celcius | 0.4 degrees Celcius | 0.4 degrees Celcius | 0.3 degrees Celcius | 0.2 degrees Celcius | 0.5 degrees Celcius | 0.1 degrees Celcius | 0.1 degrees Celcius | O=C1NC(=O)C(=Cc2cccc(C(F)(F)F)c2)S1 [PIM1/2 Kinase Inhibitor V]
